The test system of test [1] is Gerbillinae. The experiment in a line: In vivo Effective dose against Trichostrongylus colubriformis in Trichostrongylus colubriformis assay using gerbils. It is filed as functional.
The subject of test [2] is Caenorhabditis elegans. The test can be described thus: Inhibition of Caenorhabditis elegans binding evaluated using Caenorhabditis elegans motility assay. It is filed as functional, organism-based.
Test [3] concerns Artemia salina. The experiment in a line: Inhibition of Artemia salina evaluated using Arternia salina Immobilization assay. It is filed as functional.
For test [4], the system named is Gerbillinae. The experiment in a line: In vivo Effective dose against Trichostrongylus colubriformis in T. colubriformis assay using Gerbils. It is filed as functional.
The mark [5] stands for this setting: Caenorhabditis elegans, read-out: IC50.

Values after ≈ are worked out from the molar mass of the structure shown.

As to `CCC(C)[C@H]1O[C@]2(C=C[C@@H]1C)C[C@@H]1C[C@@H](C/C=C(\C)[C@@H](O[C@H]3C[C@H](OC)[C@@H](O[C@H]4C[C@H](OC)[C@@](O)(CSC5CCCCC5)[C@H](C)O4)[C@H](C)O3)[C@@H](C)/C=C/C=C3\CO[C@@H]4[C@H](O)C(C)=C[C@@H](C(=O)O1)[C@]34O)O2` (some centres not stated), in test [1], the ED85 was 0.25 mg/kg. Further, the IC50 in test [2] (setting [5]) came to 1.28 ng/mL (≈ 1.28 nM). In test [3], this compound showed an IC100 of 6930 ng/mL.
In the case of `CCCNCC1(O)C[C@H](C)O[C@@H](O[C@H]2[C@H](C)O[C@@H](O[C@@H]3/C(C)=C/C[C@@H]4C[C@@H](C[C@]5(C=C[C@H](C)[C@@H](C(C)CC)O5)O4)OC(=O)[C@@H]4C=C(C)[C@@H](O)[C@H]5OC/C(=C\C=C\[C@@H]3C)[C@]54O)C[C@@H]2OC)C[C@@H]1OC` (some centres not stated), the half-maximal inhibitory concentration (IC50) in test [2] (setting [5]) came to 1.39 ng/mL (≈ 1.45 nM). The same compound came in with an IC100 in test [3] of 27800 ng/mL. In test [4], this compound yielded an ED85 of 0.125 mg/kg.
Turning to `CCC(C)[C@H]1O[C@]2(C=C[C@@H]1C)C[C@@H]1C[C@@H](C/C=C(\C)[C@@H](O[C@H]3C[C@H](OC)[C@@H](O[C@H]4C[C@H](OC)[C@@](O)(CSc5ccncc5)[C@H](C)O4)[C@H](C)O3)[C@@H](C)/C=C/C=C3\CO[C@@H]4[C@H](O)C(C)=C[C@@H](C(=O)O1)[C@]34O)O2` (some centres not stated), the ED85 in test [1] is 0.125 mg/kg. Also, in test [2] (setting [5]), the half-maximal inhibitory concentration (IC50) amounted to 0.11 ng/mL (≈ 0.11 nM). The same compound gave an IC100 in test [3] of 6930 ng/mL.
For `CCC(C)[C@H]1O[C@]2(C=C[C@@H]1C)C[C@@H]1C[C@@H](C/C=C(\C)[C@@H](O[C@H]3C[C@H](OC)[C@@H](O[C@H]4C[C@H](OC)[C@@](O)(CNCC5CCCCC5)[C@H](C)O4)[C@H](C)O3)[C@@H](C)/C=C/C=C3\CO[C@@H]4[C@H](O)C(C)=C[C@@H](C(=O)O1)[C@]34O)O2` (some centres not stated), in that order: 0.25 mg/kg, 0.13 ng/mL (≈ 0.13 nM) and 55500 ng/mL.
Taken in the same sequence, the figures for `CCCNC[C@@]1(O)[C@H](C)O[C@@H](O[C@H]2[C@H](C)O[C@@H](O[C@@H]3/C(C)=C/C[C@@H]4C[C@@H](C[C@]5(C=C[C@H](C)[C@@H](C(C)CC)O5)O4)OC(=O)[C@@H]4C=C(C)[C@@H](O)[C@H]5OC/C(=C\C=C\[C@@H]3C)[C@]54O)C[C@@H]2OC)C[C@@H]1OC` (some centres not stated) were 0.125 mg/kg, 0.17 ng/mL (≈ 0.18 nM) and 6930 ng/mL.
On to IVERMECTIN [listing 1 of 2 here], for which, in test [2], the IC50 turned out to be 0.2 ng/mL.
`CCC(C)[C@H]1O[C@]2(C=C[C@@H]1C)C[C@@H]1C[C@@H](C/C=C(\C)[C@@H](O[C@H]3C[C@H](OC)[C@@H](O[C@H]4C[C@H](OC)C(O)(CSCC(=O)OC)C[C@H](C)O4)[C@H](C)O3)[C@@H](C)/C=C/C=C3\CO[C@@H]4[C@H](O)C(C)=C[C@@H](C(=O)O1)[C@]34O)O2` (some centres not stated): in test [2] (setting [5]), the IC50 turned out to be 0.88 ng/mL (≈ 0.875 nM). For the same compound, in test [3], the IC100 was found to be 1300 ng/mL. This compound also came in with an ED85 in test [4] of 0.063 mg/kg.
In test [1], `CCC(C)[C@H]1O[C@]2(C=C[C@@H]1C)C[C@@H]1C[C@@H](C/C=C(\C)[C@@H](O[C@H]3C[C@H](OC)[C@@H](O[C@H]4C[C@H](OC)[C@@](O)(CSc5ncc[nH]5)[C@H](C)O4)[C@H](C)O3)[C@@H](C)/C=C/C=C3\CO[C@@H]4[C@H](O)C(C)=C[C@@H](C(=O)O1)[C@]34O)O2` (some centres not stated) showed an ED85 of 0.031 mg/kg. Moreover, the IC50 in test [2] (setting [5]) was 0.13 ng/mL (≈ 0.132 nM). This compound also showed an IC100 in test [3] of 430 ng/mL.
For the compound IVERMECTIN [listing 2 of 2 here], in test [1], the ED85 was found to be 0.063 mg/kg. Moreover, the IC100 in test [3] was found to be 430 ng/mL.
`CCC(C)[C@H]1O[C@]2(C=C[C@@H]1C)C[C@@H]1C[C@@H](C/C=C(\C)[C@@H](O[C@H]3C[C@H](OC)[C@@H](O[C@H]4C[C@H](OC)[C@@](O)(CSC(C)=O)[C@H](C)O4)[C@H](C)O3)[C@@H](C)/C=C/C=C3\CO[C@@H]4[C@H](O)C(C)=C[C@@H](C(=O)O1)[C@]34O)O2` (some centres not stated) displayed an ED85 in test [1] of 0.125 mg/kg. Also, in test [2] (setting [5]), the IC50 is 0.18 ng/mL (≈ 0.187 nM). Moreover, the IC100 in test [3] came to 1730 ng/mL.
As for `CCC(C)[C@H]1O[C@]2(C=C[C@@H]1C)C[C@@H]1C[C@@H](C/C=C(\C)[C@@H](O[C@H]3C[C@H](OC)[C@@H](O[C@H]4C[C@H](OC)C(O)(CSC(C)=O)C[C@H](C)O4)[C@H](C)O3)[C@@H](C)/C=C/C=C3\CO[C@@H]4[C@H](O)C(C)=C[C@@H](C(=O)O1)[C@]34O)O2` (some centres not stated), the IC50 in test [2] (setting [5]) came to 1.11 ng/mL (≈ 1.14 nM). Besides, the IC100 in test [3] was determined as 1300 ng/mL. In test [4], the ED85 was 0.031 mg/kg.
As for `CCC(C)[C@H]1O[C@]2(C=C[C@@H]1C)C[C@@H]1C[C@@H](C/C=C(\C)[C@@H](O[C@H]3C[C@H](OC)[C@@H](O[C@H]4C[C@H](OC)[C@@](O)(CNCc5ccco5)[C@H](C)O4)[C@H](C)O3)[C@@H](C)/C=C/C=C3\CO[C@@H]4[C@H](O)C(C)=C[C@@H](C(=O)O1)[C@]34O)O2` (some centres not stated), in test [1], the ED85 worked out at 0.063 mg/kg. Also, the IC50 in test [2] (setting [5]) stood at 0.1 ng/mL (≈ 0.102 nM). In addition, the IC100 in test [3] is 10415 ng/mL.
`CCC(C)[C@H]1O[C@]2(C=C[C@@H]1C)C[C@@H]1C[C@@H](C/C=C(\C)[C@@H](O[C@H]3C[C@H](OC)[C@@H](O[C@H]4C[C@H](OC)[C@@](O)(CSCC(=O)OC)[C@H](C)O4)[C@H](C)O3)[C@@H](C)/C=C/C=C3\CO[C@@H]4[C@H](O)C(C)=C[C@@H](C(=O)O1)[C@]34O)O2` (some centres not stated) registered an ED85 in test [1] of 0.25 mg/kg. In test [2] (setting [5]), the IC50 worked out at 1.28 ng/mL (≈ 1.29 nM). This compound came in with an IC100 in test [3] of 870 ng/mL.
For the compound `CCC(C)[C@H]1O[C@]2(C=C[C@@H]1C)C[C@@H]1C[C@@H](C/C=C(\C)[C@@H](O[C@H]3C[C@H](OC)[C@@H](O[C@H]4C[C@H](OC)C(O)(CC#N)C[C@H](C)O4)[C@H](C)O3)[C@@H](C)/C=C/C=C3\CO[C@@H]4[C@H](O)C(C)=C[C@@H](C(=O)O1)[C@]34O)O2` (some centres not stated), the half-inhibitory concentration (IC50) in test [2] (setting [5]) came out at 0.7 ng/mL (≈ 0.756 nM). The compound also had an IC100 in test [3] of 870 ng/mL. Moreover, the ED85 in test [4] stood at 0.031 mg/kg.
Compound `CCOC(CNC[C@@]1(O)[C@H](C)O[C@@H](O[C@H]2[C@H](C)O[C@@H](O[C@@H]3/C(C)=C/C[C@@H]4C[C@@H](C[C@]5(C=C[C@H](C)[C@@H](C(C)CC)O5)O4)OC(=O)[C@@H]4C=C(C)[C@@H](O)[C@H]5OC/C(=C\C=C\[C@@H]3C)[C@]54O)C[C@@H]2OC)C[C@@H]1OC)OCC` (some centres not stated) had an ED85 in test [1] of 0.125 mg/kg. Also, the half-inhibitory concentration (IC50) in test [2] (setting [5]) is 0.15 ng/mL (≈ 0.147 nM). This compound also yielded an IC100 in test [3] of 13900 ng/mL.

The record behind these values is ChEMBL document CHEMBL1151081, “Synthesis of avermectin B1-4,4a-oxide: a precursor of potent anthelmintic agents” (Bioorg Med Chem Lett, 1992).
